{
  "source": "patent US7951796B2",
  "about": "(priority 2005, dated 2011)",
  "key": {"[1]": {"test_system": "cellular cholesterol in ScN2a cells", "type": "cell-based, mouse"}, "[2]": {"test_system": "RML scrapie prion infection", "type": "in vivo, mouse (transgene TG 20)", "details": "TG 20 mice"}},
  "data": [
    {"smiles": "CCN(CC)CCCC(C)Nc1c2ccc(Cl)cc2nc2ccc(OC)cc12", "note": "(stereo not shown) [Quinacrin, reference compound]", "values": [
      {"measurement": "cholesterol distribution (filipin staining)", "setting": "[1]", "result": "redistribution was revealed to intracellular compartments"}
    ]},
    {"smiles": "COc1ccc2nc3cc(Cl)ccc3c(NCCCCN3CCN(CCCN4c5ccccc5CCc5ccccc54)CC3)c2c1", "note": "[compound (10), (6-chlor-2-methoxy-acridine-9-yl)-(4-{4-[3-(10,11-dihydro-dibenzo[b,f]azepine-5-yl)-propyl]-piperazine-1-yl}-butyl)-amine]", "values": [
      {"measurement": "time to death of prion disease", "setting": "[2]; intracerebral RML scrapie, 2 mg per mouse by gavage three times weekly for eight weeks, untreated control 92±4 days", "result": "100 ± 5", "unit": "days"},
      {"measurement": "lengthening of the survival time", "setting": "[2]; versus untreated control, Student's t test p<0.0001", "result": 10, "unit": "%"},
      {"measurement": "cholesterol distribution (filipin staining)", "setting": "[1]", "result": "redistribution was revealed to intracellular compartments"}
    ]}
  ]
}
